Our source for the GI50 and IC50 values is ChEMBL document CHEMBL4342418, “1,2,3-Triazole-containing hybrids as potential anticancer agents: Current developments, action mechanisms and structure-activity relationships” (Eur J Med Chem, 2019).

For one assay, the system named is IMR-32. Put plainly: Antiproliferative activity against human IMR32 cells assessed as reduction in cell viability after 48 hrs by SRB assay. Conditions: IMR-32, 48 h. It counts as functional. On the technique in general: Sulforhodamine B stains cellular protein and so reports cell mass.
The next assay deals with HepG2. Briefly: Antiproliferative activity against human HepG2 cells assessed as reduction in cell viability after 48 hrs by SRB assay. Conditions: HepG2, 48 h. It counts as functional.
The test system of assay [1] is HeLa. Put plainly: Antiproliferative activity against human HeLa cells assessed as reduction in cell viability after 48 hrs by SRB assay. It counts as functional.
Another assay has as its system MCF7. Briefly: Antiproliferative activity against human MCF7 cells assessed as reduction in cell viability after 48 hrs by SRB assay. The settings on record: MCF7, 48 h. It counts as functional, cell-based.
Assay [2] relates to HeLa. Put plainly: Antiproliferative activity against human HeLa cells by MTT assay. The class given is functional, cell-based. (Formazan colour is commonly taken as a measure of viable cells.)
Assay [3] deals with A549. Briefly: cells. The class given is functional, cell-based. The settings on record: Homo sapiens.
Description: Antiproliferative activity against human A549 cells by MTT assay
In another assay the test system is HBL-100. Put plainly: Antiproliferative activity against human HBL100 cells by MTT assay. It counts as functional, cell-based.
The test system of another assay is WiDr. Briefly: Antiproliferative activity against human WiDr cells by MTT assay. The class given is functional, cell-based.
The test system of another assay is SW1573. Put plainly: Antiproliferative activity against human SW1573 cells by MTT assay. The class given is functional, cell-based.
The subject of a further assay is T47D. Briefly: Antiproliferative activity against human T47D cells by MTT assay. It counts as functional, cell-based.
In the next assay the test system is A-431. Briefly: Antiproliferative activity against human A431 cells assessed as reduction in cell viability after 24 hrs by MTT assay. Conditions: A-431, 24 h. It counts as functional, cell-based.
Assay [4] relates to A549. Briefly: Antiproliferative activity against human A549 cells assessed as reduction in cell viability after 24 hrs by MTT assay. It counts as functional, cell-based. Conditions: A549, 24 h.
A further assay relates to COLO 205. Put plainly: Antiproliferative activity against human COLO205 cells assessed as reduction in cell viability after 24 hrs by MTT assay. Conditions: COLO 205, 24 h. The class given is functional, cell-based.
Another assay concerns PC-3. Put plainly: Antiproliferative activity against human PC3 cells assessed as reduction in cell viability after 24 hrs by MTT assay. The class given is functional, cell-based. The settings on record: PC-3, 24 h.
For the next assay, the system named is MDA-MB-231. Put plainly: Antiproliferative activity against human MDA-MB-231 cells assessed as reduction in cell viability after 24 hrs by MTT assay. The class given is functional, cell-based. The settings on record: MDA-MB-231, 24 h.
Another assay deals with K562. Put plainly: Antiproliferative activity against human K562 cells assessed as reduction in cell viability after 24 hrs by MTT assay. It counts as functional, cell-based. Conditions: K562, 24 h.

The term GI50 denotes the concentration at which growth is held to half of that of the control. Take `Cc1ccc(-c2c(OCc3cn(Cc4ccc([N+](=O)[O-])cc4)nn3)cnn2-c2ccc(F)cc2)cc1`: the GI50 in the assay on IMR-32, with HepG2, in the assay with HeLa [1] and in the assay on MCF7 was 1800 to 9700 nM each time.
For orientation: IC50 means the concentration at which inhibition is half-maximal. For the molecule `COC(=O)c1coc([C@H](Cc2ccccc2)n2cc(CC3CC(CCc4ccccc4)CC(O[Si](C)(C)C(C)(C)C)C3)nn2)n1` (stereo not given in full), the IC50 in the assay on HeLa [2], in the assay on A549 [3], in the assay on HBL-100, with WiDr, in the assay on SW1573 and in the assay on T47D was 3.1 to 88 µM each time.
Take `Cc1ccc(-c2c(OCc3cn(Cc4ccccc4Br)nn3)cnn2-c2ccc(F)cc2)cc1`: the GI50 in the assay on IMR-32, in the assay on HepG2, with HeLa [1] and in the assay with MCF7 was 1800 to 9700 nM throughout.
With `C[C@H]1[C@@H](OCc2cn(-c3ccc(C#N)cc3)nn2)O[C@@H]2O[C@@]3(C)CC[C@H]4[C@H](C)CC[C@@H]1[C@@]24OO3`, the half-inhibitory concentration (IC50) in the assay on A-431, with A549 [4], with COLO 205, in the assay with PC-3, in the assay on MDA-MB-231 and in the assay with K562 was 4.06 to 89.9 µM in each case.
Regarding `COC(=O)c1coc(Cn2cc(CC3CC(O[Si](C)(C)C(C)(C)C)CC(C(C)C)C3)nn2)n1` (stereo not given), the IC50 in the assay with HeLa [2], in the assay on A549 [3], with HBL-100, in the assay on WiDr, with SW1573 and with T47D was 3.1 to 88 µM throughout.
In the case of `Cc1ccc(-c2c(OCc3cn(Cc4ccccc4Cl)nn3)cnn2-c2ccc(F)cc2)cc1`, the GI50 in the assay with IMR-32, in the assay with HepG2, with HeLa [1] and with MCF7 was 1800 to 9700 nM throughout.
On to `CC(=O)c1ccc(-n2cc(CO[C@H]3O[C@@H]4O[C@@]5(C)CC[C@H]6[C@H](C)CC[C@@H]([C@H]3C)[C@@]46OO5)nn2)cc1`, for which the IC50 in the assay on A-431, in the assay on A549 [4], in the assay on COLO 205, with PC-3, in the assay on MDA-MB-231 and in the assay with K562 was 4.06 to 89.9 µM throughout.
Consider `C[C@H]1[C@@H](OCc2cn(-c3ccc([N+](=O)[O-])cc3)nn2)O[C@@H]2O[C@@]3(C)O[C@]24[C@H]1CC[C@@H](C)[C@@H]4C[C@H]3O`, for which the IC50 in the assay on A-431, with A549 [4], with COLO 205, in the assay on PC-3, in the assay with MDA-MB-231 and in the assay on K562 was 4.06 to 89.9 µM in each case.
With `CC(=O)c1cccc(-n2cc(CO[C@H]3O[C@@H]4O[C@@]5(C)O[C@]46[C@@H](CC[C@@H](C)[C@@H]6C[C@H]5O)[C@H]3C)nn2)c1`, the IC50 in the assay on A-431, in the assay on A549 [4], in the assay on COLO 205, with PC-3, in the assay with MDA-MB-231 and in the assay on K562 was 4.06 to 89.9 µM throughout.
For `C=CCC1CC(Cc2cn([C@H](c3nc(C(=O)OC)co3)C(C)CC)nn2)CC(O[Si](C)(C)C(C)(C)C)C1` (stereo not given in full), the IC50 in the assay with HeLa [2], with A549 [3], with HBL-100, in the assay with WiDr, with SW1573 and with T47D was 3.1 to 88 µM each time.
Take `COc1ccc(Cn2cc(COc3cnn(-c4ccc(F)cc4)c3-c3ccc(C)cc3)nn2)cc1`: the GI50 with IMR-32, in the assay on HepG2, in the assay on HeLa [1] and with MCF7 was 1800 to 9700 nM throughout.
`COc1ccc(Cn2cc(COc3cnn(-c4ccc(C)cc4)c3)nn2)cc1`: the GI50 in the assay with IMR-32, with HepG2, with HeLa [1] and in the assay with MCF7 was 1800 to 9700 nM each time.
As for `CC(=O)c1cccc(-n2cc(CO[C@H]3O[C@@H]4O[C@@]5(C)CC[C@H]6[C@H](C)CC[C@@H]([C@H]3C)[C@@]46OO5)nn2)c1`, the IC50 in the assay on A-431, in the assay on A549 [4], with COLO 205, in the assay on PC-3, with MDA-MB-231 and in the assay with K562 was 4.06 to 89.9 µM in each case.
`CCC(C)[C@@H](c1nc(C(=O)OC)co1)n1cc(CC2CC(O[Si](C)(C)C(C)(C)C)CC(C(C)C)C2)nn1` (stereo not given in full): the IC50 in the assay on HeLa [2], in the assay on A549 [3], in the assay with HBL-100, in the assay on WiDr, with SW1573 and with T47D was 3.1 to 88 µM throughout.
For `Cc1ccc(-n2cc(OCc3cn(Cc4ccccc4Br)nn3)cn2)cc1`, the GI50 with IMR-32, in the assay on HepG2, in the assay with HeLa [1] and in the assay on MCF7 was 1800 to 9700 nM throughout.
As to `O=[N+]([O-])c1ccc(Cn2cc(COc3cnn(-c4ccccc4)c3-c3ccccc3)nn2)cc1`, the GI50 in the assay with IMR-32, in the assay on HepG2, in the assay on HeLa [1] and in the assay on MCF7 was 1800 to 9700 nM each time.
`COC(=O)c1coc([C@H](Cc2ccccc2)n2cc(CC3CC(O[Si](C)(C)C(C)(C)C)CC(C(C)C)C3)nn2)n1` (stereo not given in full): the IC50 in the assay with HeLa [2], with A549 [3], in the assay with HBL-100, in the assay with WiDr, with SW1573 and with T47D was 3.1 to 88 µM in each case.
As for `CC(=O)c1ccc(-n2cc(CO[C@H]3O[C@@H]4O[C@@]5(C)O[C@]46[C@@H](CC[C@@H](C)[C@@H]6C[C@H]5O)[C@H]3C)nn2)cc1`, the IC50 in the assay with A-431, in the assay on A549 [4], in the assay with COLO 205, in the assay on PC-3, with MDA-MB-231 and in the assay with K562 was 4.06 to 89.9 µM in each case.
`COC(=O)c1coc(Cn2cc(CC3CC(CCc4ccccc4)CC(O[Si](C)(C)C(C)(C)C)C3)nn2)n1` (stereo not given): the IC50 in the assay with HeLa [2], with A549 [3], in the assay on HBL-100, with WiDr, with SW1573 and in the assay with T47D was 3.1 to 88 µM in each case.
`CCC(C)[C@@H](c1nc(C(=O)OC)co1)n1cc(CC2CC(CCc3ccccc3)CC(O[Si](C)(C)C(C)(C)C)C2)nn1` (stereo not given in full): the IC50 with HeLa [2], in the assay on A549 [3], with HBL-100, with WiDr, in the assay with SW1573 and with T47D was 3.1 to 88 µM each time.
As to `Cc1ccc(-n2cc(OCc3cn(Cc4ccccc4Cl)nn3)cn2)cc1`, the GI50 with IMR-32, in the assay with HepG2, in the assay with HeLa [1] and with MCF7 was 1800 to 9700 nM throughout.
In the case of `Fc1ccc(-n2ncc(OCc3cn(Cc4ccccc4)nn3)c2-c2ccc(Cl)cc2)cc1`, the GI50 with IMR-32, in the assay on HepG2, in the assay with HeLa [1] and in the assay with MCF7 was 1800 to 3800 nM in each case.
As to `CC(=O)c1ccccc1-n1cc(CO[C@H]2O[C@@H]3O[C@@]4(C)O[C@]35[C@@H](CC[C@@H](C)[C@@H]5C[C@H]4O)[C@H]2C)nn1`, the IC50 with A-431, in the assay with A549 [4], in the assay with COLO 205, with PC-3, in the assay with MDA-MB-231 and in the assay on K562 was 4.06 to 89.9 µM in each case.
As to `CCCC1CC(Cc2cn(Cc3nc(C(=O)OC)co3)nn2)CC(O[Si](C)(C)C(C)(C)C)C1` (stereo not given), the IC50 with HeLa [2], with A549 [3], with HBL-100, in the assay with WiDr, in the assay with SW1573 and with T47D was 3.1 to 88 µM in each case.
For `CCCC1CC(Cc2cn([C@H](c3nc(C(=O)OC)co3)C(C)CC)nn2)CC(O[Si](C)(C)C(C)(C)C)C1` (stereo not given in full), the IC50 in the assay with HeLa [2], in the assay on A549 [3], with HBL-100, in the assay with WiDr, in the assay on SW1573 and with T47D was 3.1 to 88 µM in each case.
`C[C@H]1[C@@H](OCc2cn(-c3ccc(C#N)cc3)nn2)O[C@@H]2O[C@@]3(C)O[C@]24[C@H]1CC[C@@H](C)[C@@H]4C[C@H]3O`: the IC50 in the assay on A-431, with A549 [4], in the assay with COLO 205, in the assay on PC-3, in the assay with MDA-MB-231 and in the assay with K562 was 4.06 to 89.9 µM each time.
For `CCCC1CC(Cc2cn([C@@H](Cc3ccccc3)c3nc(C(=O)OC)co3)nn2)CC(O[Si](C)(C)C(C)(C)C)C1` (stereo not given in full), the IC50 in the assay with HeLa [2], with A549 [3], with HBL-100, with WiDr, with SW1573 and in the assay on T47D was 3.1 to 88 µM in each case.
For the molecule `C[C@@H]1CC[C@H]2[C@@H](C)C(=O)O[C@@H]3O[C@@]4(C)CC[C@@H]1[C@]32OO4` [ARTEMISININ], the IC50 in the assay with A-431, in the assay with A549 [4], in the assay with COLO 205, in the assay with PC-3, in the assay with MDA-MB-231 and in the assay on K562 was 39 to 68.8 µM in each case.
